Key:
in vivo = conditions: mouse, in vivo, ip; mice
dopamine-β-hydroxylase [1] = assay: Noradrenaline level of heart in rats, % of controls; assay type: in vivo, male Wistar rats; conditions: rat, 4 hours
Protocol: (§1) The dopamine-β-hydroxylase inhibiting effects of the new compounds according to the invention were examined by the following tests:
(§2) The tests were performed on male Wistar rats weighing 150 to 200 g. The dopamine-β-hydroxylase inhibiting effects of the compounds were evaluated by determining the change of noradrenaline, dopamine and adrenaline levels of the cerebrum, heart, spleen and adrenal gland. The serotonine and 5-hydroxy-indolylacetic acid levels of the cerebrum were also determined. The measurements were performed as follows:
(§3) The animals were decapitated, the cerebrum, heart, spleen and adrenal gland were removed quickly, and the organs were frozen by placing them on a metal sheet cooled with dry ice. The frozen organs were stored for a maximum of one night at -20° C.
(§4) The organs were weighed in the frozen state and then homogenized in 5.0 ml of 0.4 N perchloric acid containing 0.05% of EDTA-Naa and 0.1% of Na2 S2 O5. The homogenized mixtures were centrifuged as described above for the treatment of adrenal gland, the supernatants were decanted, and the pH was adjusted to 8.0±0.1 with a 0.1 molar tris buffer containing 20 g/l of NaOH and 25 g/l of EDTA-Na2. 100 mg of prepared Al2 O3 (Anton et al.: J. Pharm. Ther. 138, 360 (1962)) were added to the samples, and the mixtures were shaken mechanically for 20 minutes. Thereafter the Al2 O3 was washed with 2×10 ml of distilled water, and noradrenaline was eluted with 1.0 ml of 0.05 N perchloric acid. 0.5 ml samples of the eluate were used for the determination of noradrenaline. Noradrenaline was determined according to the method of Shellenberger et al. (Anal. Biochem. 39, 356 (1971)), with the following modifications of the basic procedure: 0.5 ml of 0.1 molar Na-K-phosphate buffer, containing 9 g/l of EDTA-Na2, were added to 0.5 ml of the eluate, and the catecholamines (noradrenaline in the examination of heart and spleen and noradrenaline and dopamine in the examination of the cerebrum) were oxidized with 0.1 ml of a 0.1 N iodine solution in 5% potassium iodide. After exactly 2 minutes, oxidation was stopped by adding 0.25 ml of a 2.5% sodium sulfite solution in 4.4 N aqueous sodium hydroxide to the mixture. 2 minutes after the introduction of the alkaline sulfite solution, 0.2 ml of concentrated acetic acid was added to the samples, whereupon the pH decreased to 4.4 to 4.5. Thereafter the samples were placed for 5 minutes in a drying oven heated to 100° C., and then the samples were cooled with ice water. The fluorescency of noradrenaline was measured with an OPTON spectrophotometer at wavelengths of 380 nm (excitation) and 490 nm (emission).
(§5) In the tests disulfiram, 2,2-dipyridyl, bis(1-methyl-4-homopiperazinyl-thiocarbonyl)-disulfide, sodium diethyldithiocarbamate and N-phenyl-N'-(2-thiazolyl)-thiourea were used as reference substances. The values indicated in Table 1 are the percentages in relation to the amine levels of the controls measured in the same tests (±standard error). The statistical calculations were performed on a TPA/i type computer, using Student's t test.

dopamine-β-hydroxylase [2] = conditions: literature, cited from earlier work
dopamine-β-hydroxylase [3] = assay: Noradrenaline level of spleen in rats, % of controls; assay type: in vivo, male Wistar rats; conditions: rat, i.p., 37.5 mg/kg, 4 hours
Protocol: as §1
as §2, with “follows: […]” for “follows:”
The organs were weighed in the frozen state and then homogenized in 5.0 ml of 0.4 N perchloric acid containing 0.05% of EDTA-Naa and 0.1% of Na2 S2 O5. […] Noradrenaline was determined according to the method of Shellenberger et al. (Anal. Biochem. 39, 356 (1971)), with the following modifications of the basic procedure: 0.5 ml of 0.1 molar Na-K-phosphate buffer, containing 9 g/l of EDTA-Na2, were added to 0.5 ml of the eluate, and the catecholamines (noradrenaline in the examination of heart and spleen and noradrenaline and dopamine in the examination of the cerebrum) were oxidized with 0.1 ml of a 0.1 N iodine solution in 5% potassium iodide. […] The fluorescency of noradrenaline was measured with an OPTON spectrophotometer at wavelengths of 380 nm (excitation) and 490 nm (emission). […]

dopamine-β-hydroxylase [4] = assay: Noradrenaline and dopamine levels of the cerebrum (brain) in rats, % of controls; assay type: in vivo, male Wistar rats; conditions: rat, 4 hours
Protocol: as §1, §2, §3, §4
The brains were homogenized in 10 parts by volume of 0.4 N perchloric acid. The homogenized mixture was stored at -20° C. overnight; thereafter it was thawed and centrifuged as described above. A sample of the homogenized mixture corresponding to 0.5 g of brain was removed, the pH of the sample was adjusted to 8.0±0.1 with 0.1 molar tris-buffer of the above composition, and the sample was processed as described above for the determination of the noradrenaline content of heart and spleen, with the difference that 1.5 ml of 0.05 N perchloric acid was used as the eluting agent. 0.5 ml of the eluate was used to determine the noradrenaline and dopamine contents. The measurement was performed as described above, with the difference that samples of 0.5 ml were applied for the recording of the flourescence of noradrenaline. The residue was placed for 50 minutes into a drying oven heated to 100° C., thereafter the sample was cooled with ice water, and the fluorescence of dopamine was recorded at wavelengths of 325 nm (excitation) and 380 nm (emission).
In a further test series the serotonine and 5-hydroxy-indolylacetic acid contents were also determined, in addition to the determination of the noradrenaline and dopamine content, from the same sample. […]

dopamine-β-hydroxylase [5] = assay: Adrenaline level of adrenal gland in rats, % of controls; assay type: in vivo, male Wistar rats; conditions: rat, 4 hours
Protocol: as §1, §2, §3
The adrenal glands were freed from fat and homogenized in 3.0 ml of ice-cold 0.4 N perchloric acid. The homogenized mixtures were centrifuged for 10 minutes at 0° C. with a speed of 3200 r.p.m. using a Janetzky K-70 type centrifuge. 0.05 ml samples were taken from the supernatant, and the adrenaline level was determined directly by the method of Laverty et al. (Anal. Biochem. 22, 269 (1968)).
as §5

[6] = tested on: serotonine and 5-hydroxy-indolylacetic acid levels of the cerebrum; assay: Serotonine and 5-hydroxy-indolylacetic acid levels of the cerebrum (brain) in rats, % of controls; assay type: in vivo, male Wistar rats; conditions: for Brain SE level (percentages in relation to the controls): rat, i.p., 4 hours
Protocol: as §2, §3
In a further test series the serotonine and 5-hydroxy-indolylacetic acid contents were also determined, in addition to the determination of the noradrenaline and dopamine content, from the same sample. In this instance the brains were homogenized in 10 ml of 75% ethanol, 0.2 ml of EDTA-Na2 and 5% of ascorbic acid were added to the homogenized mixtures, and the homogenized mixtures were maintained at -20° C. overnight. The mixtures were centrifuged as described above, and 5.0 ml samples of the supernatant were removed. The samples were diluted with equal volumes of distilled water, and poured onto ion exchange columns of 0.5×1.5 cm dimensions, filled with buffered Amberlite CG-30 (200 to 400 mesh). The columns were washed with 5 ml of distilled water followed by 1.0 ml of 0.2 N hydrochloric acid, and the first effluent and the aqueous wash were collected for the determination of 5-hydroxy-indolylacetic acid. Elution was continued with a further 1.2 ml quantity of 0.2 N hydrochloric acid in order to remove noradrenaline, dopamine and serotonine. Samples of 0.3 ml were used for the determinations.
Noradrenaline and dopamine were determined by the method of Shellenberger, modified as described above, whereas serotonine was determined by the method of Curzon et al. (Brit. J. Pharmacol. 39, 653 (1970)). The basic method was modified as follows: A 0.5% solution of ortho-phthal(di)aldehyde in absolute ethanol was diluted with […] hydrochloric acid to 50-fold of its original volume, and 0.6 ml of the resulting 0.01% ortho-phthal(di)aldehyde solution were added immediately to 0.5 ml of the serotonine-containing sample. The sample was placed in a hot water bath for 10 minutes, thereafter cooled with tap water, and the flourescence was recorded at wavelengths of 360 nm (excitation) and 490 nm (emission).
5-Hydroxy-indolylacetic acid was determined from the mixture of the first effluent and the aqueous wash. 10 ml of distilled water and 0.2 ml of concentrated hydrochloric acid were added to the mixture, and the sample was poured onto a 0.8×4.0 cm column filled with Sephadex G-10. The column was washed with 15 ml of 0.1 N hydrochloric acid followed by 1.8 to 2.0 ml of 0.02 N aqueous ammonia, and then 5-hydroxy-indolylacetic acid was eluted with further 2.0 ml of the aqueous ammonia. 0.5 ml samples were used in the measurements, and the determination was performed according to the method of Korf et al. (Biochem. Pharmacol. 20, 659 (1971)).
as §5

Toxicity, LD50, rats = conditions: rat, in vivo, po
Toxicity, LD50, rabbits = conditions: rabbit, in vivo, po
mice = assay: in vivo; conditions: i.p.

c1ccc(-c2ccccn2)nc1 [2,2-D, 2,2-dipyridyl]
LD50 (in vivo): 280 mg/kg
Heart NA level (percentages in relation to the controls) (dopamine-β-hydroxylase [1]; i.p., 37.5 mg/kg): 104%
Heart NA level (percentages in relation to the controls) (dopamine-β-hydroxylase [1]; i.p., 75 mg/kg): 58%
dopamine-β-hydroxylase inhibition in vitro, in words (dopamine-β-hydroxylase [2]; in vitro conditions): effective under in vitro conditions
Spleen NA level (percentages in relation to the controls) (dopamine-β-hydroxylase [3]): 100%
Brain DA level (percentages in relation to the controls) (dopamine-β-hydroxylase [4]; i.p., 37.5 mg/kg): 116%
Brain NA level (percentages in relation to the controls) (dopamine-β-hydroxylase [4]; i.p., 37.5 mg/kg): 79.5%
Brain DA level (percentages in relation to the controls) (dopamine-β-hydroxylase [4]; i.p., 75 mg/kg): 95%
Brain NA level (percentages in relation to the controls) (dopamine-β-hydroxylase [4]; i.p., 75 mg/kg): 41.2%
Adrenal gland adrenaline level (% of controls) (dopamine-β-hydroxylase [5]; i.p., 37.5 mg/kg): 80%
Adrenal gland adrenaline level (% of controls) (dopamine-β-hydroxylase [5]; i.p., 75 mg/kg): 63%
response vs control in vivo at 75 mg/kg ([6]; Rattus norvegicus, ip, 4 h, read-out: Brain SE level (percentages in relation to the controls)): 100%

CCN(CC)C(=S)SSC(=S)N(CC)CC [DS, bis(diethylthiocarbamoyl)-disulfide]
Heart NA level (percentages in relation to the controls) (dopamine-β-hydroxylase [1]; i.p., 200 mg/kg): 98%
Heart NA level (percentages in relation to the controls) (dopamine-β-hydroxylase [1]; i.p., 400 mg/kg): 102%
dopamine-β-hydroxylase inhibiting effects, in words (dopamine-β-hydroxylase [2]; known compounds): strong dopamine-β-hydroxylase inhibiting effects
LD50 (Toxicity, LD50, rats): 8600 ± 370 mg/kg
LD50 (Toxicity, LD50, rabbits): 1800 ± 130 mg/kg
Brain DA level (percentages in relation to the controls) (dopamine-β-hydroxylase [4]; i.p., 200 mg/kg): 111%
Brain NA level (percentages in relation to the controls) (dopamine-β-hydroxylase [4]; i.p., 200 mg/kg): 22.5%
Brain DA level (percentages in relation to the controls) (dopamine-β-hydroxylase [4]; i.p., 400 mg/kg): 112%
Brain NA level (percentages in relation to the controls) (dopamine-β-hydroxylase [4]; i.p., 400 mg/kg): 24.1%
Adrenal gland adrenaline level (% of controls) (dopamine-β-hydroxylase [5]; i.p., 200 mg/kg): 52%
Adrenal gland adrenaline level (% of controls) (dopamine-β-hydroxylase [5]; i.p., 400 mg/kg): 66%
Brain SE level (percentages in relation to the controls) ([6]; 200 mg/kg): 122%
Brain SE level (percentages in relation to the controls) ([6]; 400 mg/kg): 117%

CCCCNC1=C(C([O-])=S)CCC1.CCCCNC1=C(C([O-])=S)CCC1.[Zn+2] [M-3, 2-(N-butyl)-amino-cyclopent-1-ene-thiocarboxylic acid (zinc salt)]
LD50 (mice): ~ 450 mg/kg
Heart NA level (percentages in relation to the controls) (dopamine-β-hydroxylase [1]; i.p., 50 mg/kg): 84.5±4.1%
Heart NA level (percentages in relation to the controls) (dopamine-β-hydroxylase [1]; i.p., 100 mg/kg): 91.5 ± 8.1%
Heart NA level (percentages in relation to the controls) (dopamine-β-hydroxylase [1]; p.o., 500 mg/kg): 108.8 ±3.2%
Brain DA level (percentages in relation to the controls) (dopamine-β-hydroxylase [4]; i.p., 50 mg/kg): 112.2 ± 12.0%
Brain NA level (percentages in relation to the controls) (dopamine-β-hydroxylase [4]; i.p., 50 mg/kg): 85.0 ±9.1%
Brain DA level (percentages in relation to the controls) (dopamine-β-hydroxylase [4]; i.p., 100 mg/kg): 121.3 ± 6.1%
Brain NA level (percentages in relation to the controls) (dopamine-β-hydroxylase [4]; i.p., 100 mg/kg): 73.5 ± 3.2%
Brain DA level (percentages in relation to the controls) (dopamine-β-hydroxylase [4]; p.o., 500 mg/kg): 99.2 ±5.0%
Brain NA level (percentages in relation to the controls) (dopamine-β-hydroxylase [4]; p.o., 500 mg/kg): 98.9 ±2.5%
Adrenal gland adrenaline level (% of controls) (dopamine-β-hydroxylase [5]; i.p., 50 mg/kg): 66.3%
Adrenal gland adrenaline level (% of controls) (dopamine-β-hydroxylase [5]; i.p., 100 mg/kg): 60.5 ± 3.6%
Adrenal gland adrenaline level (% of controls) (dopamine-β-hydroxylase [5]; p.o., 500 mg/kg): 100.3 ±8.3%

From patent US4179467A, “Dopamine hydroxylase inhibiting 2-amino-cyclopent-1-ene-1-thiocarboxylic acid-disulfides” (Richter Gedeon Vegyeszeti Gyar Rt., priority 1976, dated 1979)
